Assays:
Assay in all cases: KINOMEscan competition binding
Settings in all cases: compound 10.0 µM
[1] = biological target: ACVR1B (human) (UniProt P36896)
[2] = biological target: BMPR1A (human) (UniProt P36894)
[3] = biological target: BMPR1B (human) (UniProt O00238)
[4] = biological target: BRSK1 (human) (UniProt Q8TDC3)
[5] = biological target: CAMK4 (human) (UniProt Q16566)
[6] = biological target: CAMKK1 (human) (UniProt Q8N5S9)
[7] = biological target: CLK4 (human) (UniProt Q9HAZ1)
[8] = biological target: DAPK3 (human) (UniProt O43293)
[9] = biological target: DDR2 (human) (UniProt Q16832)
[10] = biological target: EPHA2 (human) (UniProt P29317)
[11] = biological target: FER (human) (UniProt P16591)
[12] = biological target: FES (human) (UniProt P07332)
[13] = biological target: FGFR2 (human) (UniProt P21802)
[14] = biological target: FLT4 (human) (UniProt P35916)
[15] = biological target: IGF1R (human) (UniProt P08069)
[16] = biological target: MAK (human) (UniProt P20794)
[17] = biological target: MAP2K3 (human) (UniProt P46734)
[18] = biological target: MAP2K5 (human) (UniProt Q13163)
[19] = biological target: MAP4K4 (human) (UniProt O95819)
[20] = biological target: MAPK14 (human) (UniProt Q16539)
[21] = biological target: MAPK7 (human) (UniProt Q13164)
[22] = biological target: MET (human) (UniProt P08581)
[23] = biological target: NEK2 (human) (UniProt P51955)
[24] = biological target: NLK (human) (UniProt Q9UBE8)
[25] = biological target: NUAK2 (human) (UniProt Q9H093)
[26] = biological target: PAK6 (human) (UniProt Q9NQU5)
[27] = biological target: PDGFRA (human) (UniProt P16234)
[28] = biological target: PHKG1 (human) (UniProt Q16816)
[29] = biological target: PIK3C2G (human) (UniProt O75747)
[30] = biological target: PIM2 (human) (UniProt Q9P1W9)
[31] = biological target: PKN2 (human) (UniProt Q16513)
[32] = biological target: PKN3 (M.tuberculosis) (UniProt Q6P5Z2)
[33] = biological target: RET (human) (UniProt P07949)
[34] = biological target: RIOK1 (human) (UniProt Q9BRS2)
[35] = biological target: RPS6KA1 KD1 (human) (UniProt Q15418)
[36] = biological target: STK10 (human) (UniProt O94804)
[37] = biological target: TAOK3 (human) (UniProt Q9H2K8)
[38] = biological target: TGFBR1 (human) (UniProt P36897)
[39] = biological target: ULK1 (human) (UniProt O75385)
[40] = biological target: RPS6KA6 KD1 (human) (UniProt Q9UK32)

NEK2 (human), sequence (P51955 whole entry, looked up): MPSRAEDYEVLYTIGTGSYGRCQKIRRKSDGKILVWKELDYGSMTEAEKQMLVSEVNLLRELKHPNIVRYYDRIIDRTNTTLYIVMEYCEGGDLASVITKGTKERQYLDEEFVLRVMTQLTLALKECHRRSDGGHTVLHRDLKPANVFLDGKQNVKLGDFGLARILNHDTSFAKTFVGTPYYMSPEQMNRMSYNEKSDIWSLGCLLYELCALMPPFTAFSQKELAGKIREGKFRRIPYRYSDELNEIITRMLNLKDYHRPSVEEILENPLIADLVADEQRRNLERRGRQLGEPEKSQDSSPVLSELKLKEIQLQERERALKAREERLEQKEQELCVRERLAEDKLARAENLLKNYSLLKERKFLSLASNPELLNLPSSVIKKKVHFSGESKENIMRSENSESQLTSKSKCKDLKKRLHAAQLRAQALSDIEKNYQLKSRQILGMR
PHKG1 (human), sequence (Q16816 whole entry, looked up): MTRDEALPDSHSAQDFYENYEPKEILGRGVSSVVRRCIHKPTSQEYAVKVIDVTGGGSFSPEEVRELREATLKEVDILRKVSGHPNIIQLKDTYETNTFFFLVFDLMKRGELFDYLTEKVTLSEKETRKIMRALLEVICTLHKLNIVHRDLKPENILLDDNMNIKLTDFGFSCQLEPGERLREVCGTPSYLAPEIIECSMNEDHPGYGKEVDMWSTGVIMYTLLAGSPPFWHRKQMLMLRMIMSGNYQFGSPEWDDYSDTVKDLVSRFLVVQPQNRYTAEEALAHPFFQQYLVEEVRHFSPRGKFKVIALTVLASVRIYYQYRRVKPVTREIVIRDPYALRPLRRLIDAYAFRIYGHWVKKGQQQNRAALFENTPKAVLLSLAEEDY
EPHA2 (human), sequence (P29317 whole entry, looked up): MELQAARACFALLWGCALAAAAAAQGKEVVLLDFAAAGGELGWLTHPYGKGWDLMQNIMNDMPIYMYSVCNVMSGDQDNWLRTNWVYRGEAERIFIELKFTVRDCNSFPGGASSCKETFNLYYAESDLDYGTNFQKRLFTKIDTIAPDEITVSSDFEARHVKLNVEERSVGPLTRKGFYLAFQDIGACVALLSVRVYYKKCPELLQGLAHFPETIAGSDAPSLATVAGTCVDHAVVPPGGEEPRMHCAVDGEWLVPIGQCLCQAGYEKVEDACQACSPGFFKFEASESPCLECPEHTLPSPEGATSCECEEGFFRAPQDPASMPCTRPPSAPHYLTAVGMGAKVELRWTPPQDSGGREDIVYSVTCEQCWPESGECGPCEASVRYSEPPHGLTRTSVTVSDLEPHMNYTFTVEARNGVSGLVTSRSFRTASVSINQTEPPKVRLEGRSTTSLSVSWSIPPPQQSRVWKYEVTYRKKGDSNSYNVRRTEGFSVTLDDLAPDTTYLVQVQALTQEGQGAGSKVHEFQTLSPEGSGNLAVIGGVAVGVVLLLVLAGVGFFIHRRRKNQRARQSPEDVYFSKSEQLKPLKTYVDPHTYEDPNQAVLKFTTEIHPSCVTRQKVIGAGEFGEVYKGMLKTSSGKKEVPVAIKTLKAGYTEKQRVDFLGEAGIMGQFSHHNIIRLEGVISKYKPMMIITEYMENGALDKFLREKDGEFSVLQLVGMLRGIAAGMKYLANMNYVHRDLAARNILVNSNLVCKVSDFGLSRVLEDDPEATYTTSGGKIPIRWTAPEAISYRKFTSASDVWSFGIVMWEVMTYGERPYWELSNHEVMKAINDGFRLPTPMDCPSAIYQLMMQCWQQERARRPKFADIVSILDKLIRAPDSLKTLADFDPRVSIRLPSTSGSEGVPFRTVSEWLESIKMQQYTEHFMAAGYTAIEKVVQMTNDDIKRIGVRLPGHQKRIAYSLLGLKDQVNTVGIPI
ULK1 (human), sequence (O75385 whole entry, looked up): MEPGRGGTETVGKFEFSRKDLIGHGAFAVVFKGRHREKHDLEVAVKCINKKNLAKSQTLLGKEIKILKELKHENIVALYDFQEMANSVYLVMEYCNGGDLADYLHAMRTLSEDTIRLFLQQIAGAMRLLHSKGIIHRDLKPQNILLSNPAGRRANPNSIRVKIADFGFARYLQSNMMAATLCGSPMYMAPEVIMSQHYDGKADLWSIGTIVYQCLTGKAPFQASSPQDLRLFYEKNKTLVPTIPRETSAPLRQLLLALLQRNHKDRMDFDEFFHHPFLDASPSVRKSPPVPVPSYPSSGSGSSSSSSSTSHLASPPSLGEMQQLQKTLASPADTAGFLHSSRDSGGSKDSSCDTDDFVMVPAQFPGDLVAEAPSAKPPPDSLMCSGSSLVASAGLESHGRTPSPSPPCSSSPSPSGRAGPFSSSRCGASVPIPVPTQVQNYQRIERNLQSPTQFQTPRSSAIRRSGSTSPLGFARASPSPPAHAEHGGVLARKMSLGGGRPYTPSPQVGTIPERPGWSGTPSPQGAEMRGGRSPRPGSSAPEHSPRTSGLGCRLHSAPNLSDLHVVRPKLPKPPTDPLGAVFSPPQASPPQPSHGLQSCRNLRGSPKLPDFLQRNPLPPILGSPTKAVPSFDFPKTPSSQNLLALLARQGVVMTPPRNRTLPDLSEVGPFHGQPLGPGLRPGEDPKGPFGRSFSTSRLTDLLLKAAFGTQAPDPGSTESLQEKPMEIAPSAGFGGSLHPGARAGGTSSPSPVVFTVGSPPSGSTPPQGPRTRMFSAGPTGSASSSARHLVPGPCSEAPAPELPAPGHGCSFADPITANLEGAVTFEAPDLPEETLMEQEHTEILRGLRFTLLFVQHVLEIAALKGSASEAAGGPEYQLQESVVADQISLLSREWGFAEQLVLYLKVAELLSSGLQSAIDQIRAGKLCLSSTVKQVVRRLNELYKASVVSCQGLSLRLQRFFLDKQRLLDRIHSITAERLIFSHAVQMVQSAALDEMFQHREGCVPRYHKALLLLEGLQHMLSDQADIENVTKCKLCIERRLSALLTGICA
FES (human), sequence (P07332 whole entry, looked up): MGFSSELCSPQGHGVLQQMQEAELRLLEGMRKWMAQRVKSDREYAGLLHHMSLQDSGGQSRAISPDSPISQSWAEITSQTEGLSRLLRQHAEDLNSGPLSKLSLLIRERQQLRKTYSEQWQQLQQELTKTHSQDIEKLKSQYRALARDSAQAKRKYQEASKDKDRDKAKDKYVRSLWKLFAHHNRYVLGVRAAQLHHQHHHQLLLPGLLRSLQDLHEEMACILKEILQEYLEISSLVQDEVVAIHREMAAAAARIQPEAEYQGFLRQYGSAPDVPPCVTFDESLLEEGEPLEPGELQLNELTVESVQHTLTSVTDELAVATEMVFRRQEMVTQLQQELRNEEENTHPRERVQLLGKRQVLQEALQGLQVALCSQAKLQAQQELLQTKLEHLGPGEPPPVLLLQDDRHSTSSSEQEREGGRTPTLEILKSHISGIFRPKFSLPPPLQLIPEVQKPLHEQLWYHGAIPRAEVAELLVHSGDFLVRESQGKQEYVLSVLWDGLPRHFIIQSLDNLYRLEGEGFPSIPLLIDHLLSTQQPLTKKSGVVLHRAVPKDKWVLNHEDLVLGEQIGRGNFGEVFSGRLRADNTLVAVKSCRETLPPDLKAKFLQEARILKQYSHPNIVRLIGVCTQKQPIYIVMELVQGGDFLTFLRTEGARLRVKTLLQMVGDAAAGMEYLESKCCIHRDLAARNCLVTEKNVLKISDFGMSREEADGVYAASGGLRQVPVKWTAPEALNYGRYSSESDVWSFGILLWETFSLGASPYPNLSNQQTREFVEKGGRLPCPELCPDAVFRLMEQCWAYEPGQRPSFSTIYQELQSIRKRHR
CAMK4 (human), sequence (Q16566 whole entry, looked up): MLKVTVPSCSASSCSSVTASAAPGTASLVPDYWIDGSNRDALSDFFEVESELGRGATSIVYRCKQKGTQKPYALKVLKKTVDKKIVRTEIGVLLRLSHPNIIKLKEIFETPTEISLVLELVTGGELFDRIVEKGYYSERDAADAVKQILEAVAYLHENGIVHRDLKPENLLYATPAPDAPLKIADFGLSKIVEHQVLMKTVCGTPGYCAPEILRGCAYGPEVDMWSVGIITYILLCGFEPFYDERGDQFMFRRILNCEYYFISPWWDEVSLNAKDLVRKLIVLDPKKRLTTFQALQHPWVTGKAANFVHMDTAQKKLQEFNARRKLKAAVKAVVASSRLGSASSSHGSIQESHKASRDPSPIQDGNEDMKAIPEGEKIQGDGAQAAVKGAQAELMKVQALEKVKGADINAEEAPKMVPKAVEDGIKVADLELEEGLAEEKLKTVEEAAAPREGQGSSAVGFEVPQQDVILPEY
MAP2K3 (human), sequence (P46734 whole entry, looked up): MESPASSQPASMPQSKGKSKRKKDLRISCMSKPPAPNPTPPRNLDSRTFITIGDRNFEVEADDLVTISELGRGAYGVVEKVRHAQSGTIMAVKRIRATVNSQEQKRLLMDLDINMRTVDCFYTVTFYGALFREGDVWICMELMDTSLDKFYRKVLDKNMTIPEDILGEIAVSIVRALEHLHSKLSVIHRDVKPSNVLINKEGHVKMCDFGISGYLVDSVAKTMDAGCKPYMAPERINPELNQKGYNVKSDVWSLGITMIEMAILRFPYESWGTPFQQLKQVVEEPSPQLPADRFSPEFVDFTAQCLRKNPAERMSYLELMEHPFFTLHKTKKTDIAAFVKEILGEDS
TGFBR1 (human), sequence (P36897 whole entry, looked up): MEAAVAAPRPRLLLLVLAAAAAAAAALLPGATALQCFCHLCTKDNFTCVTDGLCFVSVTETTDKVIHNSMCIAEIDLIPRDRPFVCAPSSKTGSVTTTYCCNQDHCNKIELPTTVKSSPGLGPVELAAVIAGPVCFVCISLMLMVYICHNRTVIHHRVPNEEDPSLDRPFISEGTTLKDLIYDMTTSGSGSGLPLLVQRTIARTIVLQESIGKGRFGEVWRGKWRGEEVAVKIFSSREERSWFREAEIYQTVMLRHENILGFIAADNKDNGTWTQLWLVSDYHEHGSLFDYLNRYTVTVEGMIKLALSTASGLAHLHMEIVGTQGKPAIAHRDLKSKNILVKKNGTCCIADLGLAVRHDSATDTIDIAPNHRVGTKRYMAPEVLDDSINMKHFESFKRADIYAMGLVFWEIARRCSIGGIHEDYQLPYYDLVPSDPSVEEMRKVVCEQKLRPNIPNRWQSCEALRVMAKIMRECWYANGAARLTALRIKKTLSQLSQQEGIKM

SMILES	kinase still bound, per cent of control [1]	kinase still bound, per cent of control [2]	kinase still bound, per cent of control [3]	kinase still bound, per cent of control [5]	kinase still bound, per cent of control [7]	kinase still bound, per cent of control [8]	kinase still bound, per cent of control [9]	kinase still bound, per cent of control [10]	kinase still bound, per cent of control [11]	kinase still bound, per cent of control [12]	kinase still bound, per cent of control [14]	kinase still bound, per cent of control [15]	kinase still bound, per cent of control [16]	kinase still bound, per cent of control [17]	kinase still bound, per cent of control [19]	kinase still bound, per cent of control [20]	kinase still bound, per cent of control [21]	kinase still bound, per cent of control [22]	kinase still bound, per cent of control [23]	kinase still bound, per cent of control [24]	also measured
CNC(=O)c1cc(Oc2ccc(NC(=O)Nc3ccc(Cl)c(C(F)(F)F)c3)cc2)ccn1	92%	100%	98%	100%	52%	88%	14%	18%	87%	74%	0%	100%	41%	97%	18%	0.2%	85%	69%	100%	32%	kinase still bound, per cent of control [4]: 92%; kinase still bound, per cent of control [6]: 89%; kinase still bound, per cent of control [13]: 14%; kinase still bound, per cent of control [18]: 0.3%; kinase still bound, per cent of control [25]: 100%; kinase still bound, per cent of control [26]: 91%; kinase still bound, per cent of control [27]: 0%; kinase still bound, per cent of control [28]: 90%; kinase still bound, per cent of control [29]: 80%; kinase still bound, per cent of control [30]: 91%; kinase still bound, per cent of control [31]: 100%; kinase still bound, per cent of control [32]: 100%; kinase still bound, per cent of control [33]: 0.05%; kinase still bound, per cent of control [34]: 100%; kinase still bound, per cent of control [35]: 82%; kinase still bound, per cent of control [36]: 0%; kinase still bound, per cent of control [37]: 0.8%; kinase still bound, per cent of control [38]: 100%; kinase still bound, per cent of control [39]: 100%
CCN(CC)CCCCNc1ncc2c(n1)N(C)C(=O)N(c1c(Cl)c(OC)cc(OC)c1Cl)C2	100%	100%	100%	100%	100%	100%	30%	100%	100%	100%	100%	100%	100%	100%	100%	100%	4.1%	100%	100%	100%	kinase still bound, per cent of control [4]: 100%; kinase still bound, per cent of control [6]: 100%; kinase still bound, per cent of control [13]: 2.6%; kinase still bound, per cent of control [25]: 100%; kinase still bound, per cent of control [26]: 100%; kinase still bound, per cent of control [27]: 100%; kinase still bound, per cent of control [28]: 100%; kinase still bound, per cent of control [29]: 100%; kinase still bound, per cent of control [30]: 100%; kinase still bound, per cent of control [31]: 100%; kinase still bound, per cent of control [33]: 100%; kinase still bound, per cent of control [34]: 100%; kinase still bound, per cent of control [35]: 100%; kinase still bound, per cent of control [40]: 100%; kinase still bound, per cent of control [36]: 100%; kinase still bound, per cent of control [37]: 0.4%; kinase still bound, per cent of control [38]: 100%; kinase still bound, per cent of control [39]: 100%
COc1cc2ncn(-c3cc(OCc4ccccc4C(F)(F)F)c(C(N)=O)s3)c2cc1OC	76%	100%	64%	100%	45%	19%	81%	44%	100%	87%	1.4%	100%	100%	78%	53%	100%	100%	15%	14%	68%	kinase still bound, per cent of control [18]: 0.45%; kinase still bound, per cent of control [25]: 6%; kinase still bound, per cent of control [26]: 94%; kinase still bound, per cent of control [27]: 58%; kinase still bound, per cent of control [28]: 88%; kinase still bound, per cent of control [29]: 100%; kinase still bound, per cent of control [30]: 100%; kinase still bound, per cent of control [31]: 39%; kinase still bound, per cent of control [32]: 76%; kinase still bound, per cent of control [33]: 39%; kinase still bound, per cent of control [34]: 4.1%; kinase still bound, per cent of control [35]: 96%; kinase still bound, per cent of control [40]: 18%; kinase still bound, per cent of control [36]: 0%; kinase still bound, per cent of control [37]: 89%; kinase still bound, per cent of control [38]: 86%; kinase still bound, per cent of control [39]: 92%

From the kinase profiling compilation of Christmann-Franck et al. (2016)
